Structures can show the parent of a compound that is named as a salt. Where two headings read alike, the source gives them in different places.

Holding throughout (assay): AK assay 384-well format, Prestwick library screening
One experiment relates to P. aeruginosa. The experiment is classed as cell-based, Pseudomonas aeruginosa. The settings on record: Pseudomonas aeruginosa, 3 h, 50 μM final drug concentration.
Experiment [1] concerns S. aureus strain USA300-0114. The experiment is classed as cell-based, Staphylococcus aureus. The settings on record: Staphylococcus aureus, USA300, 3 h, 50 μM final drug concentration.
The test system of the next experiment is E. faecium. It is filed as cell-based, Enterococcus faecium. The settings on record: Enterococcus faecium, 3 h, 50 μM final drug concentration.
In experiment [2] the test system is A. baumannii strain 98-37-09. It is filed as cell-based, Acinetobacter baumannii. The settings on record: Acinetobacter baumannii, 983709, 3 h, 50 μM final drug concentration.
For a further experiment, the system named is E. cloacae. It is filed as cell-based, Enterobacter cloacae. The settings on record: Enterobacter cloacae, 3 h, 50 μM final drug concentration.
For a further experiment, the system named is E. coli. The experiment is classed as cell-based, Escherichia coli. The settings on record: Escherichia coli, 3 h, 50 μM final drug concentration.
The next experiment concerns K. pneumoniae. The experiment is classed as cell-based, Klebsiella pneumoniae. The settings on record: Klebsiella pneumoniae, 3 h, 50 μM final drug concentration.
Where [3] appears, read: planktonic P. aeruginosa, 384-well, cutoff for positive-scoring molecules 3-fold increase, read-out: AK-based Prestwick Library Screening Results: P. aeruginosa (increase in extracellular AK activity).
Where [4] appears, read: planktonic S. aureus, 384-well, cutoff for positive-scoring molecules 3-fold increase, read-out: AK-based Prestwick Library Screening Results: S. aureus (increase in extracellular AK activity).
Setting [5] is: planktonic E. faecium, 384-well, cutoff for positive-scoring molecules 3-fold increase, read-out: AK-based Prestwick Library Screening Results: E. faecium (increase in extracellular AK activity).
The mark [6] stands for this setting: planktonic A. baumannii, 384-well, cutoff for positive-scoring molecules 3-fold increase, read-out: AK-based Prestwick Library Screening Results: A. baumannii (increase in extracellular AK activity).
The mark [7] stands for this setting: planktonic E. cloacae, 384-well, cutoff for positive-scoring molecules 3-fold increase, read-out: AK-based Prestwick Library Screening Results: E. cloacae (increase in extracellular AK activity).
[8] abbreviates: planktonic E. coli, 384-well, cutoff for positive-scoring molecules 3-fold increase, read-out: AK-based Prestwick Library Screening Results: E. coli (increase in extracellular AK activity).
Setting [9] is: planktonic K. pneumoniae, 384-well, cutoff for positive-scoring molecules 3-fold increase, read-out: AK-based Prestwick Library Screening Results: K. pneumoniae (increase in extracellular AK activity).
The mark [10] stands for this setting: cutoff for positive-scoring molecules 3-fold increase, read-out: AK-based Prestwick Library Screening Results, P. aeruginosa (fold increase in extracellular AK activity).
[11] abbreviates: cutoff for positive-scoring molecules 3-fold increase, read-out: AK-based Prestwick Library Screening Results, S. aureus (fold increase in extracellular AK activity).
Where [12] appears, read: cutoff for positive-scoring molecules 3-fold increase, read-out: AK-based Prestwick Library Screening Results, E. faecium (fold increase in extracellular AK activity).
Where [13] appears, read: cutoff for positive-scoring molecules 3-fold increase, read-out: AK-based Prestwick Library Screening Results, A. baumannii (fold increase in extracellular AK activity).
Setting [14] is: cutoff for positive-scoring molecules 3-fold increase, read-out: AK-based Prestwick Library Screening Results, E. cloacae (fold increase in extracellular AK activity).
[15] abbreviates: cutoff for positive-scoring molecules 3-fold increase, read-out: AK-based Prestwick Library Screening Results, E. coli (fold increase in extracellular AK activity).
Setting [16] is: cutoff for positive-scoring molecules 3-fold increase, read-out: AK-based Prestwick Library Screening Results, K. pneumoniae (fold increase in extracellular AK activity).

Regarding `CC(Cc1ccc(O)cc1)NCC(O)c1cc(O)cc(O)c1` (stereo not drawn) [Fenoterol hydrobromide], the fold induction at 50 µM in the experiment on P. aeruginosa (planktonic P. aeruginosa, 384-well, […], read-out: AK-based Prestwick Library Screening Results: P. aeruginosa (increase in extracellular AK activity)) was 1.1; in experiment [1] (planktonic S. aureus, 384-well, […], read-out: AK-based Prestwick Library Screening Results: S. aureus (increase in extracellular AK activity)), 1; with E. faecium (planktonic E. faecium, 384-well, […], read-out: AK-based Prestwick Library Screening Results: E. faecium (increase in extracellular AK activity)), 1.1; in experiment [2] (planktonic A. baumannii, 384-well, […], read-out: AK-based Prestwick Library Screening Results: A. baumannii (increase in extracellular AK activity)) it was 1.3; in the experiment with E. cloacae (planktonic E. cloacae, 384-well, […], read-out: AK-based Prestwick Library Screening Results: E. cloacae (increase in extracellular AK activity)), 1.4; in the experiment with E. coli (planktonic E. coli, 384-well, […], read-out: AK-based Prestwick Library Screening Results: E. coli (increase in extracellular AK activity)), 1.3. Besides, the fold induction at 50 µM with K. pneumoniae (planktonic K. pneumoniae, 384-well, […], read-out: AK-based Prestwick Library Screening Results: K. pneumoniae (increase in extracellular AK activity)) was determined as 0.9.

Take `O=C1NCC2(CCN(CCc3ccccc3)CC2)O1` [Fenspiride hydrochloride]: the fold induction at 50 µM in the experiment on P. aeruginosa (setting [3]) was found to be 1.1; in experiment [1] (setting [4]) it was 1.1; in the experiment with E. faecium (setting [5]) it was 1; in experiment [2] (setting [6]), 1.2; with E. cloacae (setting [7]) it was 1.6; with E. coli (setting [8]), 1.3. In addition, the fold induction at 50 µM with K. pneumoniae (setting [9]) is 1.

As for `COc1cc(C(=O)OC2CC3CCC(C2)N3C)ccc1O` (stereo not drawn) [Fillalbin], the fold induction at 50 µM in the experiment with P. aeruginosa (setting [10]) worked out at 1.2; in experiment [1] (setting [11]) it was 1; in the experiment with E. faecium (setting [12]), 1; in experiment [2] (setting [13]), 0.9; in the experiment with E. cloacae (setting [14]) it was 1.8; in the experiment on E. coli (setting [15]) it was 1.2. Also, in the experiment on K. pneumoniae (setting [16]), the fold induction at 50 µM amounted to 0.8.

With `CC(C)(C)NC(=O)[C@H]1CC[C@H]2[C@@H]3CC[C@H]4NC(=O)C=C[C@]4(C)[C@H]3CC[C@]12C` [Finasteride], the fold induction at 50 µM was found to be 1.1 with P. aeruginosa (setting [10]); 1 in experiment [1] (setting [11]); 1.1 in the experiment with E. faecium (setting [12]); 1.2 in experiment [2] (setting [13]); 1.8 in the experiment with E. cloacae (setting [14]); 1.1 in the experiment with E. coli (setting [15]). In addition, in the experiment with K. pneumoniae (setting [16]), the fold induction at 50 µM is 0.9.

Take `O=C(COc1ccc(Cl)cc1)N1CCN(Cc2ccc3c(c2)OCO3)CC1` [Fipexide hydrochloride]: the fold induction at 50 µM with P. aeruginosa (setting [3]) turned out to be 1; in experiment [1] (setting [4]), 0.9; in the experiment with E. faecium (setting [5]) it was 1.1; in experiment [2] (setting [6]), 1; in the experiment on E. cloacae (setting [7]), 1.3; in the experiment with E. coli (setting [8]), 1.3. Besides, the fold induction at 50 µM with K. pneumoniae (setting [9]) amounted to 1.1.

As to `Cc1c(-c2ccccc2)oc2c(C(=O)OCCN3CCCCC3)cccc2c1=O` [Flavoxate hydrochloride], the fold induction at 50 µM worked out at 0.6 in the experiment with P. aeruginosa (384-well format, cutoff for positive-scoring molecules 3-fold increase, read-out: AK-based Prestwick Library Screening Results, P. aeruginosa (increase in extracellular AK activity)); 0.6 in experiment [1] (384-well format, cutoff for positive-scoring molecules 3-fold increase, read-out: AK-based Prestwick Library Screening Results, S. aureus (increase in extracellular AK activity)); 0.9 in the experiment on E. faecium (384-well format, cutoff for positive-scoring molecules 3-fold increase, read-out: AK-based Prestwick Library Screening Results, E. faecium (increase in extracellular AK activity)); 0.5 in experiment [2] (384-well format, cutoff for positive-scoring molecules 3-fold increase, read-out: AK-based Prestwick Library Screening Results, A. baumannii (increase in extracellular AK activity)); 0.6 with E. cloacae (384-well format, cutoff for positive-scoring molecules 3-fold increase, read-out: AK-based Prestwick Library Screening Results, E. cloacae (increase in extracellular AK activity)); 0.5 in the experiment on E. coli (384-well format, cutoff for positive-scoring molecules 3-fold increase, read-out: AK-based Prestwick Library Screening Results, E. coli (increase in extracellular AK activity)). Moreover, the fold induction at 50 µM in the experiment on K. pneumoniae (384-well format, cutoff for positive-scoring molecules 3-fold increase, read-out: AK-based Prestwick Library Screening Results, K. pneumoniae (increase in extracellular AK activity)) is 0.6.

With `O=C(NCC1CCCCN1)c1cc(OCC(F)(F)F)ccc1OCC(F)(F)F` (stereo not drawn) [Flecainide acetate], the fold induction at 50 µM in the experiment with P. aeruginosa (planktonic, cutoff for positive-scoring molecules 3-fold increase, read-out: AK-based Prestwick Library Screening Results, P. aeruginosa (fold increase in extracellular AK activity)) was found to be 0.6; in experiment [1] (planktonic, cutoff for positive-scoring molecules 3-fold increase, read-out: AK-based Prestwick Library Screening Results, S. aureus (fold increase in extracellular AK activity)), 0.7; with E. faecium (planktonic, cutoff for positive-scoring molecules 3-fold increase, read-out: AK-based Prestwick Library Screening Results, E. faecium (fold increase in extracellular AK activity)) it was 0.9; in experiment [2] (planktonic, cutoff for positive-scoring molecules 3-fold increase, read-out: AK-based Prestwick Library Screening Results, A. baumannii (fold increase in extracellular AK activity)) it was 0.8; in the experiment on E. cloacae (planktonic, cutoff for positive-scoring molecules 3-fold increase, read-out: AK-based Prestwick Library Screening Results, E. cloacae (fold increase in extracellular AK activity)), 0.7; in the experiment on E. coli (planktonic, cutoff for positive-scoring molecules 3-fold increase, read-out: AK-based Prestwick Library Screening Results, E. coli (fold increase in extracellular AK activity)), 0.6. Also, the fold induction at 50 µM with K. pneumoniae (planktonic, cutoff for positive-scoring molecules 3-fold increase, read-out: AK-based Prestwick Library Screening Results, K. pneumoniae (fold increase in extracellular AK activity)) amounted to 0.6.

Regarding `Cc1onc(-c2c(F)cccc2Cl)c1C(=O)N[C@@H]1C(=O)N2[C@@H]1SC(C)(C)[C@@H]2C(=O)O` [Flucloxacillin sodium], the fold induction at 50 µM turned out to be 1.2 in the experiment with P. aeruginosa (planktonic P. aeruginosa, positive cutoff 3-fold increase, read-out: AK-based Prestwick library screening result, P. aeruginosa (fold increase in extracellular AK activity)); 6.1 in experiment [1] (planktonic S. aureus, positive cutoff 3-fold increase, read-out: AK-based Prestwick library screening result, S. aureus (fold increase in extracellular AK activity)); 1 in the experiment with E. faecium (planktonic E. faecium, positive cutoff 3-fold increase, read-out: AK-based Prestwick library screening result, E. faecium (fold increase in extracellular AK activity)); 1.5 in experiment [2] (planktonic A. baumannii, positive cutoff 3-fold increase, read-out: AK-based Prestwick library screening result, A. baumannii (fold increase in extracellular AK activity)); 1.3 in the experiment on E. cloacae (planktonic E. cloacae, positive cutoff 3-fold increase, read-out: AK-based Prestwick library screening result, E. cloacae (fold increase in extracellular AK activity)); 1.3 with E. coli (planktonic E. coli, positive cutoff 3-fold increase, read-out: AK-based Prestwick library screening result, E. coli (fold increase in extracellular AK activity)). Moreover, the fold induction at 50 µM with K. pneumoniae (planktonic K. pneumoniae, positive cutoff 3-fold increase, read-out: AK-based Prestwick library screening result, K. pneumoniae (fold increase in extracellular AK activity)) turned out to be 1.1.

Turning to `Nc1[nH]c(=O)ncc1F` [Flucytosine], the fold induction at 50 µM turned out to be 1.1 in the experiment with P. aeruginosa (setting [10]); 1.1 in experiment [1] (setting [11]); 0.9 in the experiment with E. faecium (setting [12]); 1.2 in experiment [2] (setting [13]); 1.8 in the experiment on E. cloacae (setting [14]); 1.1 with E. coli (setting [15]). In addition, the fold induction at 50 µM in the experiment on K. pneumoniae (setting [16]) stood at 0.8.
